We go through 15 compounds from PMC11249626, “Fluorophore-Labeled Pyrrolones Targeting the Intracellular Allosteric Binding Site of the Chemokine Receptor CCR1” (ACS Pharmacology & Translational Science, 2024).

Usually inhibition stands for the change of the read-out against control, counted positive when it falls.

The first experiment has as its target T1, CCR2 (Homo sapiens, UniProt P41597).
T1 construct: host or cells: HEK293T, transient
T1 sequence (P41597 1-360 isoform P41597-2): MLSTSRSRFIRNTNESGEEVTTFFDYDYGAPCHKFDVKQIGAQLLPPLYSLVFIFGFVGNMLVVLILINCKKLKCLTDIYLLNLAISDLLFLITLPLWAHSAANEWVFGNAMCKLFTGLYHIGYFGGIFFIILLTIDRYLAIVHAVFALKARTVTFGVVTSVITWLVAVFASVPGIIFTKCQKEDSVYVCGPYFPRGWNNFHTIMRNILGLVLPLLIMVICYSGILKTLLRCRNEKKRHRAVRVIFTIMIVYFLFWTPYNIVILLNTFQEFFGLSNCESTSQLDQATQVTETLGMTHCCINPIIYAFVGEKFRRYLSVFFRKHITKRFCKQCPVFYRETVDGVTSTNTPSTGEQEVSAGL
In words: NanoBRET competition binding assay for CCR2 based on 7, as previously reported. The settings on record: compound at 20 μM; read-out: CCR2 inhibition class (n.i.). The text has this: With 6 (Figure 1), a first lead structure for intracellular CCR1 inhibition that features an approximately 20-fold CCR1 over CCR2 selectivity was previously discovered by Ortiz Zacarías et al.([33]) In order to discover new chemotypes for selective CCR1 over CCR2 inhibition, we aimed to apply our novel NanoBRET competition binding assay for CCR1 in combination with our recently published CCR2 competition binding assay based on 7.[47] In our first attempt, we screened a small in-house library enriched with intracellular GPCR ligands and structural analogues thereof. […] Additionally, we tested 23 for binding to the IABS of CCR9 and CXCR2 using our recently reported NanoBRET-based assay platform (Figure 6C).[44],[45] In the course of these studies, we detected no binding of 23 to CCR9 and CXCR2 up to a concentration of 20 μM. Since cell lineage-dependent effects have been observed for CCR1 antagonists,[59] we studied the CCR1 over CCR2 selectivity of 23 by using a previously reported radioligand binding assay with membrane preparations from osteosarcoma (U2OS) cells stably expressing human CCR1 or CCR2.[33] […] In agreement with these previous reports,[33] we observed a reduction in CCR1 over CCR2 selectivity when moving from membrane-based binding assays to cell-based functional assays. […] To investigate a potential signaling bias of 23, we tested the compound by means of a NanoBiT miniGi recruitment assay.[60] […] Thus, this indicated no strong signaling bias of 23 (Figures S9E and S10C). To elucidate the SAR of this new scaffold for selective CCR1 over CCR2 inhibition, we synthesized several analogues of 23 (24–40) and tested them by means of our NanoBRET competition binding assays (Schemes S2 and S3, Table 1, Figures 6F and S11). First, we aimed to examine the impact of the stereochemistry of 23 on CCR1 affinity. As for the structurally related pyrrolone 4, large differences in CCR2 affinity between the eutomer 4-[R] and the distomer 4-[S] were described.[61] […] Furthermore, we identified the 4-hydroxyphenethyl group at position 1 of the pyrrolone scaffold as highly important for CCR1 affinity and selectivity. Its presence seems to block CCR2 binding, also when combined with the structural features of the high-affinity CCR2 ligand 5, as exemplified by 24. Especially the 4-hydroxy group at this moiety is essential for CCR1 binding (see 25 and 26). […] In position 5 of the pyrrolone, several aromatic and aliphatic substituents were tolerated (see 31–35).
On the technique in general: In BRET a luciferase serves as donor, and the signal depends on an acceptor being close.
As to `O=C(C1=C(O)C(=O)N(CCc2ccccc2)C1c1ccc(F)cc1)c1ccccc1` (stereo not drawn) [compound 25], the inhibition at 20 µM was under 10%.

Take `O=C(C1=C(O)C(=O)N(CCc2ccc(O)cc2)C1c1ccccc1)c1ccccc1` (stereo not drawn) [compound 35]: the inhibition at 20 µM was under 10%.

For `O=C(C1=C(O)C(=O)N(CCc2ccc(O)cc2)C1c1cccc(Br)c1)c1ccccc1` (stereo not drawn) [compound 32], the inhibition at 20 µM is under 10%.

In the case of `O=C(C1=C(O)C(=O)N(CCc2ccc(O)cc2)C1c1ccc(F)cc1)C1CC1` (stereo not drawn) [compound 36], the inhibition at 20 µM was under 10%.

Take `O=C(C1=C(O)C(=O)N(CCc2ccc(O)cc2)C1c1ccc(F)cc1)c1cccc(O)c1` (stereo not drawn) [compound 39]: the inhibition at 20 µM was under 10%.

The next experiment concerns the target T2, CCR1 (Homo sapiens, UniProt P32246).
T2 sequence (P32246 1-355): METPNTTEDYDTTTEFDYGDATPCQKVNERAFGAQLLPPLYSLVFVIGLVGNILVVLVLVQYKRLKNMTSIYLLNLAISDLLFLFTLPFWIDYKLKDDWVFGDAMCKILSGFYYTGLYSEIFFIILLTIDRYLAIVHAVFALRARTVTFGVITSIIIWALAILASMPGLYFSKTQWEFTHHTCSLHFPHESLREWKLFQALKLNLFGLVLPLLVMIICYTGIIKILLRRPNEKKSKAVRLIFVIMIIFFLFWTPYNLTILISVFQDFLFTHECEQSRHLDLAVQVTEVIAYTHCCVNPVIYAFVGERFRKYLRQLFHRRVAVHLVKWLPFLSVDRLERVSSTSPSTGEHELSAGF
Kind of experiment: Membrane-based NanoBRET competition assay with 12 (2000 nM) and CCR1_Nluc membranes. The format is binding. The settings on record: 12 (2000 nM), CCR1_Nluc membranes. Also noted: Promega pNLF1-C (Nluc) #CCR010TN00; host or cells: HEK293T, transient (PEI).
As for `CS(=O)(=O)c1cc(C2(NC(=O)c3cncc4c3cnn4-c3ccc(F)cc3)CC2)ccn1` [compound 3, reference compound], the “Enhancement of CCR1 binding of 12” value was about 150%.

On to “CCL7: orthosteric CCR1 agonist chemokine, also referred to as MCP-3”, for which the “Competition with 12 at CCR1” value was “no competition”.

Staying with this experiment, now noted: 12 (2000 nM), CCR1_Nluc membranes; read-out: Ki, CCR1 (Figure 5B).
As for `CC[C@@H](Nc1c(Nc2cccc(C(=O)N(C)C)c2O)c(=O)c1=O)c1ccc(C)o1` [compound 20, reference compound], the Ki was 2340 nM.

In the case of `O=C(O)c1ccc(Oc2ncc(Cl)cc2NS(=O)(=O)c2ccc(Cl)c(C(F)(F)F)c2)cc1` [compound 19, reference compound], the Ki is 350 nM.

Consider `CC(C)(C)c1ccc(S(=O)(=O)Nc2ccc(Cl)cc2C(=O)c2cc[n+]([O-])cc2)cc1` [compound 21, reference compound], for which the Ki was 3130 nM.

For `CC(C)(C)c1ccc(S(=O)(=O)Nc2ccc(Cl)cc2-c2cncnc2N)cc1` [compound 22, reference compound], the Ki turned out to be 2950 nM.

Staying with this experiment, now noted: 12 (2000 nM), CCR1_Nluc membranes; read-out: Ki, CCR1 (converted).
As for `O=C(O)c1ccc(Oc2ncc(Cl)cc2NS(=O)(=O)c2ccc(Cl)c(C(F)(F)F)c2)cc1` [compound 19, reference compound], the Ki is 354 nM.

Turning to `CC(C)C[C@H](CO)Nc1nc(S[C@@H](C)c2ccccc2)nc2nc(N)sc12` [compound 18, reference compound], the Ki is 75.6 nM.

As to `O=C(C1=C(O)C(=O)N(CCc2ccccc2)C1c1ccc(F)cc1)c1ccccc1` (stereo not drawn) [compound 25], the Ki was 997 nM.

Turning to `O=C(C1=C(O)C(=O)N(CCc2ccc(O)cc2)C1c1ccccc1)c1ccccc1` (stereo not drawn) [compound 35], the Ki is 279 nM.

With `O=C(C1=C(O)C(=O)N(CCc2ccc(O)cc2)C1c1cccc(Br)c1)c1ccccc1` (stereo not drawn) [compound 32], the Ki was 195 nM.

As to `COCc1cn(CCCC(=O)C2=C(O)C(=O)N(c3ccc(Br)cc3F)C2C2CCCCC2)nn1` (stereo not drawn) [compound 10], the Ki is 97.6 nM.

The experiment is the same for the next values; noted with them: 12 (2000 nM), CCR1_Nluc membranes; read-out: pKi ± SEM, CCR1 (converted).
With `CC[C@@H](Nc1c(Nc2cccc(C(=O)N(C)C)c2O)c(=O)c1=O)c1ccc(C)o1` [compound 20, reference compound], the Ki was 2240 nM.

Regarding `CC(C)C[C@H](CO)Nc1nc(S[C@@H](C)c2ccccc2)nc2nc(N)sc12` [compound 18, reference compound], the Ki was 72.4 nM.

Turning to `O=C(C1=C(O)C(=O)N(CCc2ccccc2)C1c1ccc(F)cc1)c1ccccc1` (stereo not drawn) [compound 25], the Ki was 955 nM.

Turning to `O=C(C1=C(O)C(=O)N(CCc2ccc(O)cc2)C1c1ccccc1)c1ccccc1` (stereo not drawn) [compound 35], the Ki is 257 nM.

With `O=C(C1=C(O)C(=O)N(CCc2ccc(O)cc2)C1c1cccc(Br)c1)c1ccccc1` (stereo not drawn) [compound 32], the Ki was 178 nM.

For `CC(C)(C)c1ccc(S(=O)(=O)Nc2ccc(Cl)cc2C(=O)c2cc[n+]([O-])cc2)cc1` [compound 21, reference compound], the Ki was 2950 nM.

As to `CC(C)(C)c1ccc(S(=O)(=O)Nc2ccc(Cl)cc2-c2cncnc2N)cc1` [compound 22, reference compound], the Ki was 2630 nM.

Still in this experiment, the particulars now being: compound at 20 μM, 12 (2000 nM).
For `CC(=O)C1=C(O)C(=O)N(c2ccc(Br)cc2)C1c1ccccc1[N+](=O)[O-]` (stereo not drawn) [compound 41], the “% inh. of tracer binding, CCR1” value is reported as at least 50%.

With `Cc1ccc(S(=O)(=O)Nc2ccc(Cl)cc2C(=O)c2ccccc2)cc1` [compound 42], the “% inh. of tracer binding, CCR1” value is on record as at least 50%.

Regarding `O=C(C1=C(O)C(=O)N(CCc2ccc(O)cc2)C1c1ccc(F)cc1)C1CC1` (stereo not drawn) [compound 36], the “% inh. of tracer binding, CCR1” value was 25% @ 20 μM.

On to `O=C(C1=C(O)C(=O)N(CCc2ccc(O)cc2)C1c1ccc(F)cc1)c1cccc(O)c1` (stereo not drawn) [compound 39], for which the “% inh. of tracer binding, CCR1” value was determined as 38% @ 20 μM.

The next experiment concerns the target T2, CCR1. In words: Live cell NanoBRET binding assay, HEK293T cells expressing CCR1_Nluc. Also noted: Promega pNLF1-C (Nluc) #CCR010TN00; host or cells: HEK293T, transient (PEI). Conditions: 12 (1000 nM), live HEK293T cells; read-out: Ki, live cells.
As to `CC(C)C[C@H](CO)Nc1nc(S[C@@H](C)c2ccccc2)nc2nc(N)sc12` [compound 18, reference compound], the Ki is 98.3 nM.

Still in this experiment, the particulars now being: 12 (1000 nM), live HEK293T cells; read-out: pKi ± SEM, live cells (converted).
As to `CC(C)C[C@H](CO)Nc1nc(S[C@@H](C)c2ccccc2)nc2nc(N)sc12` [compound 18, reference compound], the Ki is 93.3 nM.
